In patent US20180230166A1 (Merck Sharp & Dohme Corp., priority 2015, published 2018):

Biological target: T1, endogenous CETP from serum (Homo sapiens, UniProt P11597)
T1 construct: yielding a concentration of approximately 15 nM endogenous CETP in the assay; from tissue; host or cells: human serum (95% of the assay volume)
T1 sequence (P11597 18-493): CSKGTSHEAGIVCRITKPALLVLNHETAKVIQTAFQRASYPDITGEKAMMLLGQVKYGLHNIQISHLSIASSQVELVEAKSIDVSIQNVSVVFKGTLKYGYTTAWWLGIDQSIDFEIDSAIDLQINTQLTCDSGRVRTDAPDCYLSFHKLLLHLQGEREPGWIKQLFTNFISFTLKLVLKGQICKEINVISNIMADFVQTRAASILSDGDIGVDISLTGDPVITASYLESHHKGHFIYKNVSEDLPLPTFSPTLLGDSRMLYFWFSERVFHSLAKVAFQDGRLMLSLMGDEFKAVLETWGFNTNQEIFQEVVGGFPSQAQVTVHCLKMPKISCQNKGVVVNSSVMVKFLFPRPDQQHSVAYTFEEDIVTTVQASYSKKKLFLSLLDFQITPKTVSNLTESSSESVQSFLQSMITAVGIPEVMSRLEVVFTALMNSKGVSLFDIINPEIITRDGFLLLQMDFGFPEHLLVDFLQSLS
Test: RTA assay in 95% human serum (95% RTA), CETP-catalyzed CE and TG transfer
Format: biochemical
Conditions: 95% human serum, endogenous CETP; read-out: RTA (95% HS)
Procedure: Reagents and sources are: [3H] cholesteryl oleate (GE #TRK.886), [3H] Triolein (Perkin-Elmer NET-431), Butylated hydroxyl toluene (Aldrich, #D4740-4), DOPC (Sigma, #P6354), Sodium Bromide (Fisher scientific #S255-500), PEG 8000 (Fisher, #BP233-1), and human HDL (Intracel Corp #RP-036).
Both assays measure the transfer of [3H] cholesteryl oleate or [3H] triolein from exogenous LDL to HDL.
Radiolabeled donor particles are generated by first combining 100 μl of 200 μM butylated hydroxyl toluene in CHCl3, 216 μL of 21.57 mM DOPC in EtOH, and either 500 μCi [3H]-triolein (Perkin Elmer #NET-431) or 500 μCi [3H]-cholesteryl oleate (GE #TRK886) in a glass tube. Reagents are mixed, dried under nitrogen, and then resuspended in 2 mL of 50 mM Tris, 27 μM EDTA at pH 7.4. After a brief vortex, the solution is sonicated until clear and mixed with 20 mL of fresh human serum. The mixture is incubated overnight at 37° C. The [3H] labeled LDL substrate is separated at 1.063 g/ml density by sequential ultracentrifugal flotation in NaBr according to the method of Havel, Eder, et al., 1955, and Chapman, Goldstein, et al., 1981. Once isolated the particles are dialyzed 3× in CETP buffer (50 mM Tris, pH 7.4, 100 mM NaCl, 1 mM EDTA). Human HDL is purchased from Intracel and used as the acceptor particles.
Transfer assays are performed in a 96-well v-bottom polypropylene plate. […] 1 μL of each test compound diluted in DMSO is added to 47 μL of assay cocktail per well and incubated at 37° C. for 1 hour. To initiate the transfer reaction, 2 μL radiolabeled LDL is added. After an additional 60 min of incubation at 37° C., the transfer action is terminated by precipitation of LDL with an equal volume of 20% W/V PEG 8000. The plates are centrifuged at 2000 rpm for 30 minutes at 4° C. A 40 μL aliquot of the HDL-containing supernatant is transferred to a Packard Optiplate™ with 200 μL of MicroScint™ 20. After mixing, plates are counted by liquid scintillation. Counts present in the supernatant for blanks (wells containing only HDL acceptor, CETP buffer and DMSO) are subtracted from those containing test compounds and used to correct for non-specific transfer.
For the transfer assay using endogenous CETP from serum (95% RTA), the same procedure is used except that human serum is added such that a final concentration of serum of 95% of the total assay volume is achieved, yielding a concentration of approximately 15 nM endogenous CETP in the assay. This is then combined with HDL and CETP buffer and the reaction proceeds as above and is terminated as described.
Comparison of the counts of samples with inhibitors to an uninhibited (DMSO only) positive control yield a percent inhibition. A plot of percent inhibition vs. log of inhibitor concentration, fit to a Sigmoidal 4 parameter equation is used to calculate IC50.
Starting materials are commercially available or are made using known procedures or as shown below. The examples may be synthesized using the general schemes provided below. The data reported for the examples below were obtained using the RTA assay in 95% human serum. […] When compounds of Formula I are mentioned herein, such compounds include compounds defined generically by Formula I and also the specific examples disclosed herein.

With COc1ccc(-c2ccc(C(=O)O)cc2C)cc1-c1ccc(C(F)(F)F)cc1[C@@H]1CC[C@H]2[C@@H](c3cc(C(F)(F)F)cc(C(F)(F)F)c3)CC(=O)N12 [Example 2, 2″-((3S,7R,7aS)-7-(3,5-bis(trifluoromethyl)phenyl)-5-oxohexahydro-1H-pyrrolizin-3-yl)-4′-methoxy-2-methyl-4″-(trifluoromethyl)-[1,1′:3′,1″-terphenyl]-4-carboxylic acid] the IC50 was 1830 nM.

Same assay, conditions: RTA assay in 95% human serum; read-out: IC50

Point of comparison: COc1cc(F)c(C(C)C)cc1-c1ccc(C(F)(F)F)cc1[C@@H]1CC[C@H]2[C@@H](c3cc(F)cc(C(F)(F)F)c3)CC(=O)N12 [Example 18, (1R,5S,7aS)-5-[4′-fluoro-2′-methoxy-5′-(1-methylethyl)-4-(trifluoromethyl)biphenyl-2-yl]-1-[3-fluoro-5-(trifluoromethyl)phenyl]hexahydro-3H-pyrrolizin-3-one], IC50 2690 nM. Against it:
- COc1ncc(-c2ccc(C(=O)O)cc2C)cc1-c1ccc(C(F)(F)F)cc1[C@@H]1CC[C@H]2[C@@H](c3cc(C(F)(F)F)cc(C(F)(F)F)c3)SC(=O)N12 [Example 4, 4-{5-[2-{(1R,5S,7aS)-1-[3,5-bis(trifluoromethyl)phenyl]-3-oxotetrahydro-1H-pyrrolo[1,2-c][1,3]thiazol-5-yl}-4-(trifluoromethyl)phenyl]-6-methoxypyridin-3-yl}-3-methylbenzoic acid] — 4.8-fold lower, 559 nM
- COc1ccc(-c2ccc(C(=O)O)cc2C)cc1-c1ccc(C(F)(F)F)cc1[C@@H]1CC[C@H]2[C@@H](c3cc(F)cc(C(F)(F)F)c3)CC(=O)N12 [Example 20] — 1.8-fold higher, 4730 nM
- COc1ncc(-c2ccc(C(=O)O)cc2C)cc1-c1ccc(C(F)(F)F)cc1[C@@H]1CC[C@H]2[C@@H](c3cc(F)cc(C(F)(F)F)c3)CC(=O)N12 [Example 19, 4-{5-[2-{(3S,7R,7aS)-7-[3-fluoro-5-(trifluoromethyl)phenyl]-5-oxohexahydro-1H-pyrrolizin-3-yl}-4-(trifluoromethyl)phenyl]-6-methoxypyridin-3-yl}-3-methylbenzoic acid] — within 1.5-fold, 2880 nM
- COc1ncc(-c2c(C)cc(C(=O)O)cc2C)cc1-c1ccc(C(F)(F)F)cc1[C@@H]1CC[C@H]2[C@@H](c3cc(F)cc(C(F)(F)F)c3)CC(=O)N12 [Example 17, 4-{5-[2-{(3S,7R,7aS)-7-[3-fluoro-5-(trifluoromethyl)phenyl]-5-oxohexahydro-1H-pyrrolizin-3-yl}-4-(trifluoromethyl)phenyl]-6-methoxypyridin-3-yl}-3,5-dimethylbenzoic acid] — 8.2-fold lower, 328 nM
- COc1ccc(-c2ccc(C(=O)O)cc2C)cc1-c1ccc(C(F)(F)F)cc1[C@@H]1CC[C@H]2[C@@H](c3ccnc(C(F)(F)F)c3)SC(=O)N12 [Example 9, 4′-methoxy-2-methyl-2″-{(1R,5S,7aS)-3-oxo-1-[2-(trifluoromethyl)pyridin-4-yl]tetrahydro-1H-pyrrolo[1,2-c][1,3]thiazol-5-yl}-4″-(trifluoromethyl)-1,1′:3′,1″-terphenyl-4-carboxylic acid] — within 1.5-fold, 1990 nM
- COc1ncc(-c2c(C)cc(C(=O)O)cc2C)cc1-c1ccc(C(F)(F)F)cc1[C@@H]1CC[C@H]2[C@@H](c3ccnc(C(F)(F)F)c3)CC(=O)N12 [Example 21, 4-{6-methoxy-5-[2-{(3S,7R,7aS)-5-oxo-7-[2-(trifluoromethyl)pyridin-4-yl]hexahydro-1H-pyrrolizin-3-yl}-4-(trifluoromethyl)phenyl]pyridin-3-yl}-3,5-dimethylbenzoic acid] — within 1.5-fold, 2900 nM
- COc1ncc(-c2c(C)cc(C(=O)O)cc2C)cc1-c1ccc(C(F)(F)F)cc1[C@@H]1CC[C@H]2[C@@H](c3cc(C(F)(F)F)cc(C(F)(F)F)c3)CC(=O)N12 [Example 14, 4-{5-[2-{(3S,7R,7aS)-7-[3,5-bis(trifluoromethyl)phenyl]-5-oxohexahydro-1H-pyrrolizin-3-yl}-4-(trifluoromethyl)phenyl]-6-methoxypyridin-3-yl}-3,5-dimethylbenzoic acid] — 8.4-fold lower, 321 nM
- COc1ccc(-c2ccc(C(=O)O)cc2C)cc1-c1ccc(C(F)(F)F)cc1[C@@H]1CC[C@H]2[C@@H](c3cc(F)cc(C(F)(F)F)c3)SC(=O)N12 [Example 6, 2″-{(1R,5S,7aS)-1-[3-flluoro-5-(trifluoromethyl)phenyl]-3-oxotetrahydro-1H-pyrrolo[1,2-c][1,3]thiazol-5-yl}-4′-methoxy-2-methyl-4″-(trifluoromethyl)-1,1′:3′,1″-terphenyl-4-carboxylic acid] — 2.9-fold lower, 926 nM
- COc1ncc(-c2ccc(C(=O)O)cc2C)cc1-c1ccc(C(F)(F)F)cc1[C@@H]1CC[C@H]2[C@@H](c3cc(F)cc(C(F)(F)F)c3)SC(=O)N12 [Example 5, 4-{5-[2-{(1R,5S,7aS)-1-[3-fluoro-5-(trifluoromethyl)phenyl]-3-oxotetrahydro-1H-pyrrolo[1,2-c][1,3]thiazol-5-yl}-4-(trifluoromethyl)phenyl]-6-methoxypyridin-3-yl}-3-methylbenzoic acid] — 9.4-fold lower, 285 nM
- COc1cc(F)c(C(C)C)cc1-c1ccc(C(F)(F)F)cc1[C@@H]1CC[C@H]2[C@@H](c3ccnc(C(F)(F)F)c3)SC(=O)N12 [Example 11, (1R,5S,7aS)-5-[4′-fluoro-2′-methoxy-5′-(1-methylethyl)-4-(trifluoromethyl)biphenyl-2-yl]-1-[2-(trifluoromethyl)pyridin-4-yl]tetrahydro-1H-pyrrolo[1,2-c][1,3]thiazol-3-one] — within 1.5-fold, 2520 nM
- COc1ncc(-c2c(C)cc(C(=O)O)cc2C)cc1-c1ccc(C(F)(F)F)cc1[C@@H]1CC[C@H]2[C@@H](c3cc(C(F)(F)F)cc(C(F)(F)F)c3)SC(=O)N12 [Example 3, 4-{5-[2-{(1R,5S,7aS)-1-[3,5-bis(trifluoromethyl)phenyl]-3-oxotetrahydro-1H-pyrrolo[1,2-c][1,3]thiazol-5-yl}-4-(trifluoromethyl)phenyl]-6-methoxypyridin-3-yl}-3,5-dimethylbenzoic acid] — 16-fold lower, 164 nM
- COc1ccc([C@H]2CC[C@H](C(=O)O)CC2)cc1-c1ccc(C(F)(F)F)cc1[C@@H]1CC[C@H]2[C@@H](c3cc(F)cc(C(F)(F)F)c3)SC(=O)N12 [Example 12, trans-4-[2′-{(1R,5S,7aS)-1-[3-fluoro-5-(trifluoromethyl)phenyl]-3-oxotetrahydro-1H-pyrrolo[1,2-c][1,3]thiazol-5-yl}-6-methoxy-4′-(trifluoromethyl)biphenyl-3-yl]cyclohexanecarboxylic acid] — 1.8-fold lower, 1500 nM
- COc1cc(F)c(C(C)C)cc1-c1ccc(C(F)(F)F)cc1[C@@H]1CC[C@H]2[C@@H](c3cc(F)cc(C(F)(F)F)c3)SC(=O)N12 [Example 7, (1R,5S,7aS)-5-[4′-fluoro-2′-methoxy-5′-(1-methylethyl)-4-(trifluoromethyl)biphenyl-2-yl]-1-[3-fluoro-5-(trifluoromethyl)phenyl]tetrahydro-1H-pyrrolo[1,2-c][1,3]thiazol-3-one] — within 1.5-fold, 2000 nM
- COc1ncc(-c2ccc(C(=O)O)cc2C)cc1-c1ccc(C(F)(F)F)cc1[C@@H]1CC[C@H]2[C@@H](c3cc(C(F)(F)F)cc(C(F)(F)F)c3)CC(=O)N12 [Example 16, 4-{5-[2-{(3S,7R,7aS)-7-[3,5-bis(trifluoromethyl)phenyl]-5-oxohexahydro-1H-pyrrolizin-3-yl}-4-(trifluoromethyl)phenyl]-6-methoxypyridin-3-yl}-3-methylbenzoic acid] — within 1.5-fold, 2940 nM
